The record followed here is US20250381165A1, “Method of Use for Benzofuran Compounds” (Tampa Bay Research Institute, Inc., priority 2024, published 2025).

In general, solubility refers to the dissolved amount per volume that the medium holds.

Data set [1] concerns MHC class I H-2Kb on DC2.4. The data set is described as follows: MHC class I recovery after acid stripping of DC2.4. Type of data set: cell-based, murine. The protocol: To determine if BzFβ affects synthesis or cycling of the MHC class I molecules, the class I molecule/peptide complexes were stripped from the surface of DC2.4 cells using a citric acid buffer, then treated with 25 μg/mL BzFβ, 5 mM of the dipeptide GL, or 3 μg/mL BFA (see Example 4) as a negative control.
An acid wash to strip the cell surface of MHC class I was performed as described with modifications. (Montealegre, et al., Dissociation of β2-microglobulin determines the surface quality control of major histocompatibility complex class I molecules. FASEB. 2015 July; 29(7):2780-8). DC2.4 were incubated overnight at 37° C. at 1×10^5. Cells were washed for 2 min in acidic buffer [(pH 2.5) 465 mM Citric acid, 35 mM sodium citrate, in PBS with 1% v/v FBS] or neutral buffer [(pH 7.4) PBS with 1% v/v FBS]. Afterwards the pH was neutralized by the addition of cDMEM. The cells were washed with PBS and treated with BzFβ or GL in cDMEM for various times to allow for MHC class I recovery at 37° C. Cells were washed and stained with an H-2Kb-specific antibody (Invitrogen, cat. no. 12-5958-82) and analyzed by flow cytometry as described previously
MHC I recovery on the cell surface at various time points was detected by flow cytometry using the PE-labeled MHC class I H-2Kb specific antibody (AF6-88.5.5.3). […] At 6 hours >60% of the MHC class I molecules recovered, seen in FIG. 14.

Data set [2] has as its target T1, H-2Kb/SIINFEKL complex on DC2.4 (Mus musculus, UniProt P01901).
T1 construct: DC2.4 are a C57Bl/6 lineage murine cell line and as such they express MHC class I H-2Kb and H-2Db; endogenous in cells; host or cells: DC2.4 (murine dendritic cell line, from Dr. Kenneth Rock)
Kind of data set: BFA decay experiment (SIINFEKL off-rate) on DC2.4. The conditions noted are these: 24 h pre-treatment, 1 h 30 nM SIINFEKL
Type of data set: cell-based, murine.

In data set [3] the target is T2, MHC class I H-2Kb tetramer (Mus musculus, UniProt P01901).
T2 construct: purchased MBL International Corporation TB-7400-K2
The data set is described as follows: QuickSwitch tetramer peptide exchange assay, H-2Kb. Conditions: p<0.001; p=0.0013. Type of data set: biochemical, murine.

The test system of data set [4] is DC2.4 cells (B3Z activation). The data set is described as follows: Pathway inhibitor studies in DC2.4/B3Z assay. The conditions noted are these: DC2.4, 3 μg/mL BFA, 25 μg/mL BzFβ 6 h, 0.5 nM SIINFEKL
Type of data set: cell-based, murine. On the procedure: […]. The cytotoxicity of all inhibitors was assessed using CellTiter96 Aqueous One (Promega (Madison WI, USA); cat. no. G3580).
. The cells were then washed 2× before addition of BzFβ. Cells exposed to the other inhibitors were incubated with an appropriate concentration of each inhibitor, seen in Table 1 in cDMEM at 37° C., 5% CO2. […]. Cells were then incubated for 6 h. Before B3Z addition the inhibitor and BzFβ were removed, and the cells washed with warm DPBS. If testing peptide presentation, the DC2.4 cells were pulsed with 0.5 nM […] for 1 h prior to being cocultured with B3Z.

The test system of data set [5] is E.G7-OVA cells (B3Z activation). Kind of data set: B3Z activation by E.G7-OVA cells. Type of data set: cell-based, murine. On the procedure:
Activation of B3Z T cell hybridoma cells was assessed following their exposure to various MHC class I H-2K^b positive cell lines presenting the SIINFEKL peptide. To stimulate β-gal production in the B3Z, the H-2Kb murine cell lines, DC2.4 and E.G7-OVA were plated at a density of 2.5 or 5×10^4 cells/well (100 μL/well in 96 well plates) and cultured overnight at 37° C. in an atmosphere containing 5% CO2 and 95% humidity. The cells were washed with DPBS and then treated for 1-24 h with the indicated concentrations of BzFβ suspended in complete media. Vehicle controls were always included. Cells being examined for the uptake and processing of soluble OVA were co-treated with BzFβ and 0.5 mg/mL grade V chicken ovalbumin for 6-24 h, and then washed and cocultured with B3Z as indicated.
Following the pretreatment with BzFβ, the media was removed from adherent cells (DC2.4 or B16F10) or was removed following pelleting of nonadherent cells in the plate. The cells were then pulsed with various concentrations of SIINFEKL peptide (typically 0.5 nM was used) for the indicated lengths of time (typically 1 h). The cells were washed and then 100 μL of complete DMEM containing 5×10^4 B3Z cells was added. […] The absorbance at 560 nm (700 nm for background) was intermittently monitored using a BioTek Synergy HTX multimode microplate reader (Winooski, VT) to detect β-gal activity. […]

Data set [6] in a line: Solubility in alkaline water. Type of data set: physicochemical. Conditions: pH 10, aqueous buffer, read-out: limit to the solubility in alkaline water (converted). On the procedure: Mice were gavaged with BzFβ at doses ranging from 25 mg/kg body to 100 mg/kg body weight, injected intravenously (iv) with 50 μg BzFβ or injected intramuscularly with BzFβ at 25 to 40 mg/kg body weight. For two weeks post-treatment, water intake and weight were monitored. […] The limit to the solubility of BzFβ in alkaline water is 4 mg, therefore no further doses were tested.

In brackets after ≈: the same amount, converted by molar mass.

T1 sequence (P01901 22-369): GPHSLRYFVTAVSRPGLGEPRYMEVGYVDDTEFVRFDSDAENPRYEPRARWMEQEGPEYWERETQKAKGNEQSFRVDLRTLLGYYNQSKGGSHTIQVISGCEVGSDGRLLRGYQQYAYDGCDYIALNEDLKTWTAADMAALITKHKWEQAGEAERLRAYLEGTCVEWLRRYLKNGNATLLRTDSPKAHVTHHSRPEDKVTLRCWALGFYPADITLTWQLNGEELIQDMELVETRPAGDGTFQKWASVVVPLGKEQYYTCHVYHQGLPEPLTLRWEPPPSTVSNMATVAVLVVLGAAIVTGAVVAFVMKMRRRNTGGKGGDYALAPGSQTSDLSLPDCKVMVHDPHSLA
T1 sequence (P01887 21-119 partner): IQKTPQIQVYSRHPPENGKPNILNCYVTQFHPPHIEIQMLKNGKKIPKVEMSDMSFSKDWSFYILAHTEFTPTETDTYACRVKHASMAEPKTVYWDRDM
T2 sequence (P01901 22-295 limits assumed): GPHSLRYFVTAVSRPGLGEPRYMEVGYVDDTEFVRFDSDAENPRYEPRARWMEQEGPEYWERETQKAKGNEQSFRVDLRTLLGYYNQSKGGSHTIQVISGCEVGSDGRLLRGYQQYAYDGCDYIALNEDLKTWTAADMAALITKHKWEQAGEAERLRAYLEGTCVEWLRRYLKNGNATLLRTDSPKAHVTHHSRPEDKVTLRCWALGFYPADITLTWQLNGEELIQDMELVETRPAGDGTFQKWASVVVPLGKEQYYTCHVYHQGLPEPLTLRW
T2 sequence (P61769 21-119 partner): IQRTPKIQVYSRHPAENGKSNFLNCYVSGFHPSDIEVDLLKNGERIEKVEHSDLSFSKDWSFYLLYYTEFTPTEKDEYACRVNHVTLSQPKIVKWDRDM

With `O=C(O)/C=C/c1ccc2occc2c1` [BzFβ, (2E)-3-(1-benzofuran-5-yl)prop-2-enoic acid], the “MHC class I recovery after acid stripping” value in data set [1] (25 μg/mL BzFβ or 5 mM GL during recovery, 4-24 h) was “did not show an increase in MHC class I recovery”. In addition, in data set [1] (treated during recovery, data not shown), the “B3Z response post acid-stripping” value was “still able to increase the B3Z response”. In addition, in data set [2], the “decay rate of SIINFEKL / stability of H-2Kb/SIINFEKL complex” value was “did not affect the decay rate of SIINFEKL”. Further, the “displacing pre-bound peptide versus no exchange factor or provided exchange molecule” value in data set [3] is on record as “significantly better”. Moreover, in data set [4], the “B3Z activation with SIINFEKL in presence of BFA” value is “unaffected”. Further, the “ability of E.G7-OVA cells to activate B3Z” value in data set [5] (0-100 μg/mL BzFβ) is “dose-dependently reduced”. In addition, the “lowest dose with significant effect” value in data set [5] (E.G7-OVA, B3Z assay) is 6.25 µg/mL. The solubility in data set [6] is 20 mg/mL (≈ 106 mM).
